Where two headings read alike, the source gives them in different places.
Experiments:
Type in all cases: in vivo
[1] = system: MES-induced seizures; test: Maximal Electroshock Seizure (MES) test, mice; details: for responders at 30 mg/kg / responders at 100 mg/kg / responders at 300 mg/kg: Mus musculus, ip
Description: The MES test is a model for generalized tonic-clonic seizures. The seizures are highly reproducible and electrophysiologically consistent with human seizures. The test provides information about a compound's ability to prevent the spread of seizure when all neuronal circuits of the brain are maximally active. 60 Hz of alternating current (50 mA in mice, 150 mA in rats) is applied for 2 seconds via corneal electrodes that have been treated with an electrolyte solution containing an anesthetic (0.5% tetracaine HCl). Mice are tested at a variety of intervals after an i.p. injection of […] solution of the test compound (commonly in a 0.5% solution of methylcellulose) at 30, 100, and 300 mg/kg doses. Rats are examined after a 30 mg/kg (per os, p.o.) dose that is applied in a volume of 0.04 mL/g. An animal is considered “protected” from MES-induced seizures upon removal of the hind limb extensor component of the seizure.
(§1) Male and female albino CF1 mice (18-25 g, Charles River, Portage, Mich.) and male albino Sprague-Dawley rats (275-300 g, kindling test; 100-150 g all other tests; Charles River, Raleigh, N.C.) were used as experimental animals.

[2] = system: metrazole-induced clonic seizures; test: Subcutaneous Metrazole Seizure Threshold Test (scMET), mice; details: for responders at 30 mg/kg / responders at 100 mg/kg / responders at 300 mg/kg: Mus musculus, sc
Experimental: The subcutaneous injection of metrazole, which is a convulsant, produces clonic seizures in laboratory animals. The scMET test is designed to identify compounds that raise the seizure threshold of an animal. Mice are pretreated with test compound at 30, 100, and 300 mg/kg doses in a similar manner to the MES test. Rats are treated with a 50 mg/kg dose (p.o.). At the previously determined TPE of the test compound, the dose of metrazole that will induce convulsions in 97% of animals (CD97: 85 mg/kg mice) is injected into the loose fold of the skin in the midline of the neck. The animals are placed in isolation cages to minimize stress and observed for the next 30 minutes for the presence or absence of seizures. An episode of clonic spasms (approximately 3-5 seconds) of the fore and/or hindlimbs, jaws or vibrissae is taken as the endpoint.
as §1

[3] = Acute toxicity, minimal motor impairment (rotorod), mice; details: mice, rotorod; for TOX 30 0.5 h (animals toxic/tested) / TOX 30 4 h (animals toxic/tested): 30 mg/kg; for TOX 100 0.5 h (animals toxic/tested) / TOX 100 4 h (animals toxic/tested): 100 mg/kg; for TOX 300 0.5 h (animals toxic/tested) / TOX 300 4 h (animals toxic/tested): 300 mg/kg
Experimental: Toxicity was measured using the minimal motor impairment test described below.
Animals are monitored for overt signs of impaired neurological or muscular function to assess a compound's toxicity. In mice, the rotorod procedure is used to disclose minimal muscular or neurological impairment. When a mouse is placed on a rotating rod (6 rpm), the animal can maintain its equilibrium for long periods of time. The animal is considered toxic if it falls off the rotating rod three times during a 1 minute period. In rats, minimal motor deficit is indicated by ataxia, which is manifested by an abnormal, uncoordinated gait.

[4] = mice, i.p., 30 mg/kg, 0.5 h, read-out: MES 30 0.5 h (animals protected/tested)
[5] = mice, i.p., 30 mg/kg, 4 h, read-out: MES 30 4 h (animals protected/tested)
[6] = mice, i.p., 100 mg/kg, 0.5 h, read-out: MES 100 0.5 h (animals protected/tested)
[7] = mice, i.p., 100 mg/kg, 4 h, read-out: MES 100 4 h (animals protected/tested)
[8] = mice, i.p., 300 mg/kg, 0.5 h, read-out: MES 300 0.5 h (animals protected/tested)
[9] = mice, i.p., 300 mg/kg, 4 h, read-out: MES 300 4 h (animals protected/tested)
[10] = mice, 30 mg/kg, 0.4 h, read-out: scMET 30 0.4 h (animals protected/tested)
[11] = mice, 30 mg/kg, 0.5 h, read-out: scMET 30 0.5 h (animals protected/tested)
[12] = mice, 100 mg/kg, 0.4 h, read-out: scMET 100 0.4 h (animals protected/tested)
[13] = mice, 100 mg/kg, 0.5 h, read-out: scMET 100 0.5 h (animals protected/tested)
[14] = mice, 300 mg/kg, 0.4 h, read-out: scMET 300 0.4 h (animals protected/tested)
[15] = mice, 300 mg/kg, 0.5 h, read-out: scMET 300 0.5 h (animals protected/tested)

## CCOC(=O)C1[C@@H]2[C@@H](O)[C@@H]3O[C@H](c4ccc(C(C)(C)C)cc4)OC[C@H]3O[C@H]12 (stereo partly drawn) [Compound 20c, Ethyl (2R,4aR,5aS,6aR,7R,7aS)-2-(4-tert-butylphenyl)-7-hydroxyhexahydro-4H-cyclopropa[5,6]pyrano[3,2-d][1,3]dioxine-6-carboxylate]
[1]; [4]
  responders at 30 mg/kg: 0%
[1]; [5]
  responders at 30 mg/kg: 0%
[1]; [6]
  responders at 100 mg/kg: 0%
[1]; [7]
  responders at 100 mg/kg: 0%
[1]; [8]
  responders at 300 mg/kg: 0%
[1]; [9]
  responders at 300 mg/kg: 0%
[2]; [10]
  responders at 30 mg/kg: 0%
[2]; [11]
  responders at 30 mg/kg: 0%
[2]; [12]
  responders at 100 mg/kg: 0%
[2]; [13]
  responders at 100 mg/kg: 0%
[2]; [14]
  responders at 300 mg/kg: 0%
[2]; [15]
  responders at 300 mg/kg: 0%
[3]
  TOX 30 0.5 h (animals toxic/tested): 0/4
  TOX 30 4 h (animals toxic/tested): 0/2
  TOX 100 0.5 h (animals toxic/tested): 0/8
  TOX 100 4 h (animals toxic/tested): 0/4
  TOX 300 0.5 h (animals toxic/tested): 0/4
  TOX 300 4 h (animals toxic/tested): 0/2

## CCOC(=O)C1[C@@H]2[C@@H](O)[C@@H]3O[C@H](c4ccccc4)OC[C@H]3O[C@H]12 (stereo partly drawn) [Compound 20a, Ethyl (2R,4aR,5aS,6aR,7R,7aS)-7-hydroxy-2-phenylhexahydro-4H-cyclopropa[5,6]pyrano[3,2-d][1,3]dioxine-6-carboxylate]
[1]; [4]
  responders at 30 mg/kg: 0%
[1]; [5]
  responders at 30 mg/kg: 0%
[1]; [6]
  responders at 100 mg/kg: 0%
[1]; [7]
  responders at 100 mg/kg: 0%
[1]; [8]
  responders at 300 mg/kg: 0%
[1]; [9]
  responders at 300 mg/kg: 0%
[2]; [10]
  responders at 30 mg/kg: 0%
[2]; [11]
  responders at 30 mg/kg: 0%
[2]; [12]
  responders at 100 mg/kg: 0%
[2]; [13]
  responders at 100 mg/kg: 0%
[2]; [14]
  responders at 300 mg/kg: 0%
[2]; [15]
  responders at 300 mg/kg: 0%
[3]
  TOX 30 0.5 h (animals toxic/tested): 0/4
  TOX 30 4 h (animals toxic/tested): 0/2
  TOX 100 0.5 h (animals toxic/tested): 0/8
  TOX 100 4 h (animals toxic/tested): 0/4
  TOX 300 0.5 h (animals toxic/tested): 0/4
  TOX 300 4 h (animals toxic/tested): 0/2

## CCOC(=O)[C@@H]1[C@H]2O[C@@H]3CO[Si](C(C)(C)C)(C(C)(C)C)O[C@H]3/C(=N/O)[C@H]21 [Compound 4]
[1]; 0.5 h, read-out: MES 30 0.5 h (animals protected/tested)
  responders at 30 mg/kg: 0%
[1]; 0.5 h, read-out: MES 100 0.5 h (animals protected/tested)
  responders at 100 mg/kg: 0%
[1]; 0.5 h, read-out: MES 300 0.5 h (animals protected/tested)
  responders at 300 mg/kg: 0%
[1]; 4 h, read-out: MES 30 4 h (animals protected/tested)
  responders at 30 mg/kg: 0%
[1]; 4 h, read-out: MES 100 4 h (animals protected/tested)
  responders at 100 mg/kg: 0%
[1]; 4 h, read-out: MES 300 4 h (animals protected/tested)
  responders at 300 mg/kg: 0%
[2]; 0.4 h, read-out: scMET 30 0.4 h (animals protected/tested)
  responders at 30 mg/kg: 0%
[2]; 0.4 h, read-out: scMET 100 0.4 h (animals protected/tested)
  responders at 100 mg/kg: 0%
[2]; 0.4 h, read-out: scMET 300 0.4 h (animals protected/tested)
  responders at 300 mg/kg: 0%
[2]; 0.5 h, read-out: scMET 30 0.5 h (animals protected/tested)
  responders at 30 mg/kg: 0%
[2]; 0.5 h, read-out: scMET 100 0.5 h (animals protected/tested)
  responders at 100 mg/kg: 0%
[2]; 0.5 h, read-out: scMET 300 0.5 h (animals protected/tested)
  responders at 300 mg/kg: 0%
[3]
  TOX 30 0.5 h (animals toxic/tested): 0/4
  TOX 30 4 h (animals toxic/tested): 0/2
  TOX 100 0.5 h (animals toxic/tested): 0/8
  TOX 100 4 h (animals toxic/tested): 1/4
  TOX 300 0.5 h (animals toxic/tested): 0/4
  TOX 300 4 h (animals toxic/tested): 0/2

## CCOC(=O)C1[C@@H]2[C@@H](OC)[C@@H]3O[C@H](c4ccc(OC)cc4)OC[C@H]3O[C@H]12 (stereo partly drawn) [Compound 18, Ethyl (2R,4aR,5aS,6aS,7R,7aS)-7-methoxy-2-(4-methoxyphenyl)hexahydro-4H-cyclopropa[5,6]pyrano[3,2-d][1,3]dioxine-6-carboxylate]
[1]; [4]
  responders at 30 mg/kg: 0%
[1]; [5]
  responders at 30 mg/kg: 0%
[1]; [6]
  responders at 100 mg/kg: 0%
[1]; [7]
  responders at 100 mg/kg: 0%
[1]; [8]
  responders at 300 mg/kg: 0%
[1]; [9]
  responders at 300 mg/kg: 0%
[2]; [10]
  responders at 30 mg/kg: 0%
[2]; [11]
  responders at 30 mg/kg: 0%
[2]; [12]
  responders at 100 mg/kg: 0%
[2]; [13]
  responders at 100 mg/kg: 0%
[2]; [14]
  responders at 300 mg/kg: 0%
[2]; [15]
  responders at 300 mg/kg: 0%
[3]
  TOX 30 0.5 h (animals toxic/tested): 0/4
  TOX 30 4 h (animals toxic/tested): 0/2
  TOX 100 0.5 h (animals toxic/tested): 0/8
  TOX 100 4 h (animals toxic/tested): 0/4
  TOX 300 0.5 h (animals toxic/tested): 0/4
  TOX 300 4 h (animals toxic/tested): 0/2

## CCOC(=O)C1[C@@H]2[C@@H](OS(=O)(=O)N(C)C)[C@@H]3OC(C)(C)OC[C@H]3O[C@H]12 (stereo partly drawn) [Compound 8a, Ethyl (4aR,5aS,6aS,7R,7aR)-7-[(dimethlylsulfamoyl)oxy]-2,2-dimethylhexahydro-4H-cyclopropa[5,6]pyrano[3,2-d][1,3]dioxine-6-carboxylate]
[1]; mice, i.p., 30 mg/kg, 0.5 h
  MES 30 0.5 h (animals protected/tested): 0/1
[1]; mice, i.p., 30 mg/kg, 4 h
  MES 30 4 h (animals protected/tested): 0/1
[1]; mice, i.p., 100 mg/kg, 0.5 h
  MES 100 0.5 h (animals protected/tested): 0/3
[1]; mice, i.p., 100 mg/kg, 4 h
  MES 100 4 h (animals protected/tested): 0/3
[1]; mice, i.p., 300 mg/kg, 0.5 h
  MES 300 0.5 h (animals protected/tested): 0/1
[1]; mice, i.p., 300 mg/kg, 4 h
  MES 300 4 h (animals protected/tested): 0/1
[2]; mice, 30 mg/kg, 0.4 h
  scMET 30 0.4 h (animals protected/tested): 0/1
[2]; mice, 30 mg/kg, 0.5 h
  scMET 30 0.5 h (animals protected/tested): 0/1
[2]; mice, 100 mg/kg, 0.4 h
  scMET 100 0.4 h (animals protected/tested): 0/1
[2]; mice, 100 mg/kg, 0.5 h
  scMET 100 0.5 h (animals protected/tested): 0/1
[2]; mice, 300 mg/kg, 0.4 h
  scMET 300 0.4 h (animals protected/tested): 0/1
[2]; mice, 300 mg/kg, 0.5 h
  scMET 300 0.5 h (animals protected/tested): 0/1
[3]
  TOX 30 0.5 h (animals toxic/tested): 0/4
  TOX 30 4 h (animals toxic/tested): 0/2
  TOX 100 0.5 h (animals toxic/tested): 0/8
  TOX 100 4 h (animals toxic/tested): 0/4
  TOX 300 0.5 h (animals toxic/tested): 1/4
  TOX 300 4 h (animals toxic/tested): 0/2

## CCOC(=O)C1[C@@H]2[C@@H](O)[C@@H]3O[C@H](c4cccc(OC)c4)OC[C@H]3O[C@H]12 (stereo partly drawn) [Compound 20e, Ethyl (2R,4aR,5aS,6aR,7R,7aS)-7-hydroxy-2-(3-methoxyphenyl)hexahydro-4H-cyclopropa[5,6]pyrano[3,2-d][1,3]dioxine-6-carboxylate]
[1]; [4]
  responders at 30 mg/kg: 0%
[1]; [5]
  responders at 30 mg/kg: 0%
[1]; [6]
  responders at 100 mg/kg: 0%
[1]; [7]
  responders at 100 mg/kg: 0%
[1]; [8]
  responders at 300 mg/kg: 0%
[1]; [9]
  responders at 300 mg/kg: 0%
[2]; [10]
  responders at 30 mg/kg: 0%
[2]; [11]
  responders at 30 mg/kg: 0%
[2]; [12]
  responders at 100 mg/kg: 0%
[2]; [13]
  responders at 100 mg/kg: 0%
[2]; [14]
  responders at 300 mg/kg: 0%
[2]; [15]
  responders at 300 mg/kg: 0%
[3]
  TOX 30 0.5 h (animals toxic/tested): 0/4
  TOX 30 4 h (animals toxic/tested): 0/2
  TOX 100 0.5 h (animals toxic/tested): 0/8
  TOX 100 4 h (animals toxic/tested): 0/4
  TOX 300 0.5 h (animals toxic/tested): 0/4
  TOX 300 4 h (animals toxic/tested): 0/2

Source: patent US8222218B2, “Cyclopropanated carbohydrates” (Seton Hall University, priority 2008, dated 2012)
